Measurements as given in patent US4446148A, “Benzodioxanyl imidazoline compounds, compositions and use” (priority 1982, dated 1984).
Entries after “also recorded” stand apart in the source; their conditions may differ. Structures can show the parent of a compound that is named as a salt. Where two headings read alike, the source gives them in different places.

Columns and labels:
[1] = system: presynaptic α2-adrenoreceptors; experiment: Presynaptic α2-adrenoreceptor antagonism in the pithed rat: reversal of clonidine block on vas deferens, intravenous; type: in vivo; details: for i.v. dose of antagonist causing 50% reversal of clonidine block on vas deferens: cumulative i.v. dosing, clonidine 100 μg/kg i.v., mean of minimum 4 rats
Method: This test model extends the evaluation of presynaptic α2 -adrenoreceptor antagonism versus clonidine on the rat vas deferens to the in vivo situation. Blood pressure and stimulation induced contractions of the vas deferens were monitored in pithed rats using the method of Brown, J., Doxey, J. C., Handley, S. and Virdee, N., Recent Advances in the Pharmacology of Adrenoceptors, Elsevier North Holland, 1978. Clonidine (100 μg/kg. i.v.) causes a prolonged pressor response and a prolonged inhibition of vas deferens contractions. The test drugs were injected intravenously in a cumulative dosing schedule and their abilities to reverse the inhibition of hypogastric nerve stimulation reflected their presynaptic antagonism.
The results are the mean of a minimum of 4 rats.

[2] = target: T1, α2-binding sites (Rattus norvegicus, UniProt P22909); experiment: Saturation binding of [^3 H]-RX 781094 in rat cerebral cortex, Scatchard analysis; details: 0.1-35 nM radioligand, n=4
T1 construct: A crude synaptosomal P2 fraction was prepared; from tissue; host or cells: cerebral cortex including hippocampus, male Sprague-Dawley rats, crude synaptosomal P2 fraction
T1 sequence (P22909 1-465): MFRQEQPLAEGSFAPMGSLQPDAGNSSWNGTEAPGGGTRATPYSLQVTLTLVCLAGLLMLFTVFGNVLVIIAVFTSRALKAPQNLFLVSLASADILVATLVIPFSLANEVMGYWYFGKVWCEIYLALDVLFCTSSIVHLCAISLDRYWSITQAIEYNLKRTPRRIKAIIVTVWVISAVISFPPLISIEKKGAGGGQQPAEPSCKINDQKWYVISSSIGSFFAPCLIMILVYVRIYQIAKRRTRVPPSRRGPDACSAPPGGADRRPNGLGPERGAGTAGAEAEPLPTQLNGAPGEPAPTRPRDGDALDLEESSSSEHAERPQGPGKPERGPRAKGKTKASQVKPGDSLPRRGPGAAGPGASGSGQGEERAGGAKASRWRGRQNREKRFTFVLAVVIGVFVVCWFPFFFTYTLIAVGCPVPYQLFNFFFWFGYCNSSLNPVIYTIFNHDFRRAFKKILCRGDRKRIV
Method: (§1) Male Sprague-Dawley rats, 250-300 g, were killed by decapitation, the brains quickly removed and the cerebral cortex dissected free from striatal tissue but including the hippocampus. Tissue was homogenized in ice-cold buffered sucrose (20 vols w/v 0.3 M sucrose in Tris/HCl buffer, 0.05 M, pH 7.4) using a Potter-type glass-teflon homogenizer. A crude synaptosomal P2 fraction was prepared and the washed P2 -pellet was resuspended in a physiological salt solution to give a final protein concentration of about 1 mg/ml.

[3] = target: T1, α2-binding sites; experiment: Radioligand competition binding at α2-binding sites labelled by [^3 H]-RX781094 in rat cerebral cortex; details: for activity of the enantiomers (in words): from Table 4 / testing results; for Ki: α2 Ki vs [^3 H]-RX 781094, rat cerebral cortex, 1 nM radioligand, 15 min, 25° C.
Source text: The pharmacological activity of the racemic compound (RS) of Example 1 (in formula I R^1 =methyl) has been compared with the activities of the R and S enantiomers.
as §1, with “mg/ml. The physiological salt solution had the following composition ([…]): 118 NaCl, 4.8 KCl, 1.3 CaCl2, 1.2 […], 1.2 MgSO4, 25 NaHCO3 and was equilibrated with 95% O2 and 5% CO2.” for “mg/ml.”
Samples were incubated for 15 min at 25° C. and then rapidly filtered under vacuum through Whatman GFB filters and washed. Filters were transferred to scintillation vials and NE 260 miscellar scintillation fluid (3.5 ml) was added prior to scintillation counting (at 40% efficiency). Competition binding curves including up to eight concentrations of test antagonist were constructed and IC50 values determined. Hill plots made from each set of data were linear with Hill coefficients (nh) […] to 1.0 and inhibitor constants (Ki values) were derived from IC50 values.

[4] = target: T2, postsynaptic α1-adrenoreceptor (Rattus norvegicus, UniProt P43140); experiment: Postsynaptic α1-adrenoreceptor antagonism versus noradrenaline contractions of the rat anococcygeus muscle (isolated tissue)
T2 construct: the rat anococcygeus muscle is used to establish postsynaptic α1 -adrenoreceptor activity; from tissue; host or cells: rat anococcygeus muscle
T2 sequence (P43140 1-466): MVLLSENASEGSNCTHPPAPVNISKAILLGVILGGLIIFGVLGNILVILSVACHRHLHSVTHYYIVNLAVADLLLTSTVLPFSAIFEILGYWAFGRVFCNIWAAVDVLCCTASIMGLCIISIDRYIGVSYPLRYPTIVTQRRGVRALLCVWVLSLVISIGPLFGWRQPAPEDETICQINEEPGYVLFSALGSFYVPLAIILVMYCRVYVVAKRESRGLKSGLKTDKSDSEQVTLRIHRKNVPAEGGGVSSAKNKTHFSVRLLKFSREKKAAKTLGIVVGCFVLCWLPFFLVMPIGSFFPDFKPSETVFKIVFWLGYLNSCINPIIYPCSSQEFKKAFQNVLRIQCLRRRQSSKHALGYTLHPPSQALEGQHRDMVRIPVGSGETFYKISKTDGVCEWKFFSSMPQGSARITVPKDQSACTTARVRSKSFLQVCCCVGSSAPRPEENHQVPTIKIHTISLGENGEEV
Source text: (§2) This in vitro model is particularly useful as an initial screen for studying presynaptic activity in isolation since the physiological nature of the vas deferens tissue is such that the postsynaptic receptors located therein are particularly inaccessible to exogenous agents. In consequence an alternative tissue, the rat anococcygeus muscle is used to establish postsynaptic α1 -adrenoreceptor activity. Antagonism of noradrenaline contractions is used to determine pA2 values at postsynaptic α1 -adrenoreceptors. The ratio of presynaptic α2 -adrenoreceptor antagonism (versus clonidine on the rat vas deferens) to postsynaptic α1 -adrenoreceptor antagonism (versus noradrenaline contractions on the rat anococcygeus muscle) is used to assess adrenoreceptor selectivity.
(§3) The results are the mean of a minimum of 5 experiments.

[5] = target: T3, presynaptic α2-adrenoreceptor (Rattus norvegicus, UniProt P22909); experiment: Presynaptic α2-adrenoreceptor antagonism versus clonidine on the stimulated rat vas deferens (isolated tissue); details: for Pre/postsynaptic ratio: presynaptic α2 (vs clonidine, vas deferens) to postsynaptic α1 (vs noradrenaline, anococcygeus) antagonism
T3 construct: on the rat vas deferens stimulated at a frequency of 0.1 Hz; from tissue; host or cells: rat vas deferens
T3 sequence (P22909 1-465): T1 sequence (P22909 1-465)
Source text: as §2, §3

## CN1CCN2c3ccccc3Cc3ccccc3C2C1 (stereo not shown) [Mianserin HCl]
[1]; pithed rat
  i.v. dose of antagonist causing 50% reversal of clonidine block on vas deferens: > 4.4 mg/kg

## c1ccc2c(c1)OCC(C1=NCCN1)O2 (stereo not shown) [[^3 H]-RX 781094, 2-[2-(1,4-benzodioxanyl)]-2-imidazoline]
[2]
  Bmax: 147±36 f moles/mg protein

## COC1(C2=NCCN2)COc2ccccc2O1 (single isomer, unassigned) [S, 2-[2-(2-methoxy-1,4-benzodioxanyl)]-2-imidazoline]
[3]; from Table 4
  potency of the S isomer relative to the racemate (in words): twice as potent as the racemate
[3]; listed as (+) enantiomer
  activity of the enantiomers (in words): all the activity resided in the (+) enantiomer
[3]; listed as S isomer
  activity of the enantiomers (in words): the active form
[3]
  Ki: 0.36 ± 0.07 nM

## COC(=O)[C@@H]1[C@H]2C[C@H]3c4[nH]c5ccccc5c4CCN3C[C@@H]2CC[C@@H]1O [Yohimbine HCl]
[1]; pithed rat
  i.v. dose of antagonist causing 50% reversal of clonidine block on vas deferens: 0.86 mg/kg

## c1ccc2c(c1)OCC(C1=NCCN1)O2 (stereo not shown) [A, 2-[2-(1,4-benzodioxanyl)]-2-imidazoline, reference compound]
[4]
  Kb: 631 nM

## CN1CCN2c3ccccc3Cc3ccccc3C2C1 (stereo not shown) [Mianserin]
[1]; pithed rat, cumulative intravenous dose of 4.4 mg/kg
  maximum reversal of the inhibitory effects of clonidine on hypogastric nerve stimulation: 36%

## Cc1ccc(N(CC2=NCCN2)c2cccc(O)c2)cc1 [Phentolamine mesylate]
[1]; pithed rat
  i.v. dose of antagonist causing 50% reversal of clonidine block on vas deferens: 0.12 mg/kg

## COC1(C2=NCCN2)COc2ccccc2O1 (single isomer, unassigned; (-)) [R, (-)-2-[2-(2-methoxy-1,4-benzodioxanyl)]-2-imidazoline]
[3]; listed as R isomer
  activity of the enantiomers (in words): almost inactive
[3]
  Ki: 256 ± 59 nM

## COC1(C2=NCCN2)COc2ccccc2O1 (racemic) [Example 1, 2-[2-(2-Methoxy-1,4-benzodioxanyl)]-2-imidazoline]
[4]; rat anococcygeus muscle, vs noradrenaline, mean of minimum 5 experiments, read-out: Postsynaptic antagonism pA2 vs Noradrenaline (anococcygeus) (converted)
  Kb: 63.1 nM
[5]; Table 2, relative to compound A
  presynaptic α2 antagonist activity relative to the unsubstituted compound (A): ~10 times
[5]; Table 2, relative to compound B
  presynaptic α2 antagonist activity relative to the 2-methyl compound (B): 10 times
[5]; compounds of Table 2
  presynaptic α2-adrenoreceptor antagonist potency and selectivity (in words): most potent presynaptic α2 -adrenoreceptor antagonist; also recorded: extremely selective for presynaptic sites
[5]
  Pre/postsynaptic ratio: 776
[5]; rat vas deferens, 0.1 Hz stimulation, vs clonidine, mean of minimum 5 experiments, read-out: Presynaptic antagonism pA2 vs Clonidine (vas deferens) (converted)
  Kb: 0.0794 nM
[1]; compounds of Table 3
  presynaptic α2 antagonist potency in the pithed rat (in words): clearly the most potent presynaptic α2 -adrenoreceptor antagonist
[1]; pithed rat
  i.v. dose of antagonist causing 50% reversal of clonidine block on vas deferens: 0.002 mg/kg
[3]
  Ki: 0.8 ± 0.05 nM

## CC1(C2=NCCN2)COc2ccccc2O1 (stereo not shown) [B, 2-[2-(2-methyl-1,4-benzodioxanyl)]-2-imidazoline, reference compound]
[5]
  Pre/postsynaptic ratio: 871
